Data reported in the supplement of paper PMC10307832.

Legend:
Experiment in all cases: relative viability (nuclei count vs DMSO), 5 days (fraction); higher = more cells survive
Shikonin + Bortezomib = compound: CC(C)=CC[C@@H](O)C1=CC(=O)c2c(O)ccc(O)c2C1=O [Shikonin] + CC(C)C[C@H](NC(=O)[C@H](Cc1ccccc1)NC(=O)c1cnccn1)B(O)O [Bortezomib] (partner 0.002 µM)
How it was run: (§1)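 Lung cancer cell lines were pin-tool dosed in 1536-well plates on the day after seeding, with either a lone drug or a fixed anchor-drug dose plus five library-drug doses (not always all listed) in √10 steps. Nuclei were counted on 4× images after 5 days. Relative viability is the ratio of treated-well to vehicle-well nuclei counts, with each value a median of duplicate plates.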

Shikonin + Linsitinib = compound: CC(C)=CC[C@@H](O)C1=CC(=O)c2c(O)ccc(O)c2C1=O [Shikonin] + C[C@]1(O)C[C@@H](c2nc(-c3ccc4ccc(-c5ccccc5)nc4c3)c3c(N)nccn32)C1 [Linsitinib] (partner 1 µM)
How it was run: as §1

[1] = compound: CC(C)N(CCCNC(=O)Nc1ccc(C(C)(C)C)cc1)C[C@H]1O[C@@H](n2ccc3c(N)ncnc32)[C@H](O)[C@@H]1O + CC(=O)c1c(C)c2cnc(Nc3ccc(N4CCNCC4)cn3)nc2n(C2CCCC2)c1=O [Palbociclib] (partner 0.5 µM)
How it was run: as §1

[2] = compound: CC(C)N(CCCNC(=O)Nc1ccc(C(C)(C)C)cc1)C[C@H]1O[C@@H](n2ccc3c(N)ncnc32)[C@H](O)[C@@H]1O + Cc1nc(Nc2ncc(C(=O)Nc3c(C)cccc3Cl)s2)cc(N2CCN(CCO)CC2)n1 [Dasatinib] (partner 0.075 µM)
How it was run: as §1

PC-3 [JPC-3] was tested, and the relative viability (Shikonin + Bortezomib; first compound 0.01 µM) was 0.824, the relative viability (Shikonin + Bortezomib; first compound 0.1 µM) was 0.894 and the relative viability (Shikonin + Bortezomib; first compound 0.3162 µM) was 0.837. It also gave a relative viability (Shikonin + Bortezomib; first compound 1 µM) of 0.868, a relative viability (Shikonin + Linsitinib; first compound 0.01 µM) of 0.923 and a relative viability (Shikonin + Linsitinib; first compound 0.1 µM) of 1.07. It also gave a relative viability (Shikonin + Linsitinib; first compound 0.3162 µM) of 0.951, a relative viability (Shikonin + Linsitinib; first compound 1 µM) of 1.03 and a relative viability ([1]; first compound 0.08 µM) of 0.54. For the same cell line, the relative viability ([1]; first compound 0.253 µM) was 0.53, the relative viability ([1]; first compound 2.53 µM) was 0.507 and the relative viability ([1]; first compound 8 µM) was 0.487. For the same cell line, the relative viability ([2]; first compound 0.08 µM) was 0.921, the relative viability ([2]; first compound 0.253 µM) was 0.971 and the relative viability ([2]; first compound 0.8 µM) was 0.884. It also gave a relative viability ([2]; first compound 2.53 µM) of 0.892 and a relative viability ([2]; first compound 8 µM) of 0.868.

Work on PC-14 yielded a relative viability (Shikonin + Bortezomib; first compound 0.01 µM) of 0.973, a relative viability (Shikonin + Bortezomib; first compound 0.1 µM) of 0.953 and a relative viability (Shikonin + Bortezomib; first compound 0.3162 µM) of 1.02. The relative viability (Shikonin + Bortezomib; first compound 1 µM) was 0.881, the relative viability (Shikonin + Linsitinib; first compound 0.01 µM) was 0.978 and the relative viability (Shikonin + Linsitinib; first compound 0.1 µM) was 0.997. For the same cell line, the relative viability (Shikonin + Linsitinib; first compound 0.3162 µM) was 1.12, the relative viability (Shikonin + Linsitinib; first compound 1 µM) was 0.983 and the relative viability ([1]; first compound 0.08 µM) was 0.467. It also gave a relative viability ([1]; first compound 0.253 µM) of 0.439, a relative viability ([1]; first compound 0.8 µM) of 0.586 and a relative viability ([1]; first compound 2.53 µM) of 0.444. The relative viability ([1]; first compound 8 µM) was 0.496, the relative viability ([2]; first compound 0.08 µM) was 0.223 and the relative viability ([2]; first compound 0.253 µM) was 0.292. It also gave a relative viability ([2]; first compound 0.8 µM) of 0.233, a relative viability ([2]; first compound 2.53 µM) of 0.247 and a relative viability ([2]; first compound 8 µM) of 0.275.

In the case of RERF-LC-KJ, the relative viability (Shikonin + Bortezomib; first compound 0.01 µM) is reported as 1.08, the relative viability (Shikonin + Bortezomib; first compound 0.1 µM) is reported as 1.19 and the relative viability (Shikonin + Bortezomib; first compound 0.3162 µM) is reported as 1.28. For the same cell line, the relative viability (Shikonin + Bortezomib; first compound 1 µM) was 0.986, the relative viability (Shikonin + Linsitinib; first compound 0.01 µM) was 0.985 and the relative viability (Shikonin + Linsitinib; first compound 0.1 µM) was 0.896. It also gave a relative viability (Shikonin + Linsitinib; first compound 0.3162 µM) of 0.867, a relative viability (Shikonin + Linsitinib; first compound 1 µM) of 0.953 and a relative viability ([1]; first compound 0.08 µM) of 1.01. It also gave a relative viability ([1]; first compound 0.253 µM) of 1.07, a relative viability ([1]; first compound 0.8 µM) of 1.18 and a relative viability ([1]; first compound 2.53 µM) of 1.17. It also gave a relative viability ([1]; first compound 8 µM) of 1.07, a relative viability ([2]; first compound 0.08 µM) of 0.837 and a relative viability ([2]; first compound 0.253 µM) of 0.888. The relative viability ([2]; first compound 0.8 µM) was 0.79, the relative viability ([2]; first compound 2.53 µM) was 0.778 and the relative viability ([2]; first compound 8 µM) was 0.799.

SK-LU-1 gave a relative viability (Shikonin + Bortezomib; first compound 0.01 µM) of 1.14, a relative viability (Shikonin + Bortezomib; first compound 0.1 µM) of 0.984 and a relative viability (Shikonin + Bortezomib; first compound 0.3162 µM) of 1.34. The relative viability (Shikonin + Bortezomib; first compound 1 µM) was 1.58, the relative viability (Shikonin + Linsitinib; first compound 0.01 µM) was 1.26 and the relative viability (Shikonin + Linsitinib; first compound 0.1 µM) was 1.27. It also gave a relative viability (Shikonin + Linsitinib; first compound 0.3162 µM) of 0.999, a relative viability (Shikonin + Linsitinib; first compound 1 µM) of 1.01 and a relative viability ([1]; first compound 0.08 µM) of 0.431. For the same cell line, the relative viability ([1]; first compound 0.253 µM) was 0.42, the relative viability ([1]; first compound 0.8 µM) was 0.332 and the relative viability ([1]; first compound 2.53 µM) was 0.389. For the same cell line, the relative viability ([1]; first compound 8 µM) was 0.36, the relative viability ([2]; first compound 0.08 µM) was 0.18 and the relative viability ([2]; first compound 0.253 µM) was 0.184. The relative viability ([2]; first compound 0.8 µM) was 0.19, the relative viability ([2]; first compound 2.53 µM) was 0.184 and the relative viability ([2]; first compound 8 µM) was 0.207.

SW 1573 gave a relative viability (Shikonin + Bortezomib; first compound 0.01 µM) of 1.12, a relative viability (Shikonin + Bortezomib; first compound 0.1 µM) of 1.39 and a relative viability (Shikonin + Bortezomib; first compound 0.3162 µM) of 1.06. The relative viability (Shikonin + Bortezomib; first compound 1 µM) was 0.955, the relative viability (Shikonin + Linsitinib; first compound 0.01 µM) was 0.968 and the relative viability (Shikonin + Linsitinib; first compound 0.1 µM) was 0.772. The relative viability (Shikonin + Linsitinib; first compound 0.3162 µM) was 0.887, the relative viability (Shikonin + Linsitinib; first compound 1 µM) was 0.626 and the relative viability ([1]; first compound 0.08 µM) was 0.377. For the same cell line, the relative viability ([1]; first compound 0.253 µM) was 0.431, the relative viability ([1]; first compound 0.8 µM) was 0.419 and the relative viability ([1]; first compound 2.53 µM) was 0.401. For the same cell line, the relative viability ([1]; first compound 8 µM) was 0.336, the relative viability ([2]; first compound 0.08 µM) was 0.475 and the relative viability ([2]; first compound 0.253 µM) was 0.463. It also gave a relative viability ([2]; first compound 0.8 µM) of 0.579, a relative viability ([2]; first compound 2.53 µM) of 0.704 and a relative viability ([2]; first compound 8 µM) of 0.474.
